Data as given in ChEMBL document CHEMBL4004849, “Tetrazolylmethyl quinolines: Design, docking studies, synthesis, anticancer and antifungal analyses” (2017).
Active and inactive are the calls of the source.

Legend:
Format in all cases: functional
[1] = test system: MCF7; assay: Growth inhibition of human MCF7 cells at 10^-5 M incubated for 48 hrs by sulforhodamine B assay relative to control
[2] = test system: T47D; assay: Growth inhibition of human T47D cells at 10^-5 M incubated for 48 hrs by sulforhodamine B assay relative to control
[3] = test system: BT-549; assay: Growth inhibition of human BT549 cells at 10^-5 M incubated for 48 hrs by sulforhodamine B assay relative to control
[4] = test system: NCI/ADR-RES; assay: Growth inhibition of human NCI-ADR-RES cells at 10^-5 M incubated for 48 hrs by sulforhodamine B assay relative to control
[5] = test system: UACC-257; assay: Growth inhibition of human UACC257 cells at 10^-5 M incubated for 48 hrs by sulforhodamine B assay relative to control
[6] = test system: SK-MEL-5; assay: Growth inhibition of human SK-MEL-5 cells at 10^-5 M incubated for 48 hrs by sulforhodamine B assay relative to control
[7] = test system: SR; assay: Growth inhibition of human SR cells at 10^-5 M incubated for 48 hrs by sulforhodamine B assay relative to control
[8] = test system: HCT-15; assay: Growth inhibition of human HCT15 cells at 10^-5 M incubated for 48 hrs by sulforhodamine B assay relative to control
[9] = test system: A549; assay: Growth inhibition of human A549/ATCC cells at 10^-5 M incubated for 48 hrs by sulforhodamine B assay relative to control
[10] = test system: KM12; assay: Growth inhibition of human KM12 cells at 10^-5 M incubated for 48 hrs by sulforhodamine B assay relative to control
[11] = test system: SNB-19; assay: Growth inhibition of human SNB19 cells at 10^-5 M incubated for 48 hrs by sulforhodamine B assay relative to control
[12] = test system: Aspergillus fumigatus; assay: Antifungal activity against Aspergillus fumigatus at 100 ug/ml by disc diffusion method; details: read-out: IZ
[13] = test system: Hs-578T; assay: Growth inhibition of human Hs 578T cells at 10^-5 M incubated for 48 hrs by sulforhodamine B assay relative to control
[14] = test system: LOX IMVI; assay: Growth inhibition of human LOXIMVI cells at 10^-5 M incubated for 48 hrs by sulforhodamine B assay relative to control
[15] = test system: SF-295; assay: Growth inhibition of human SF295 cells at 10^-5 M incubated for 48 hrs by sulforhodamine B assay relative to control
[16] = test system: OVCAR-3; assay: Growth inhibition of human OVCAR3 cells at 10^-5 M incubated for 48 hrs by sulforhodamine B assay relative to control
[17] = test system: SK-MEL-2; assay: Growth inhibition of human SK-MEL-2 cells at 10^-5 M incubated for 48 hrs by sulforhodamine B assay relative to control
[18] = test system: MDA-MB-231; assay: Growth inhibition of human MDA-MB-231/ATCC cells at 10^-5 M incubated for 48 hrs by sulforhodamine B assay relative to control
[19] = test system: HL-60(TB); assay: Growth inhibition of human HL-60(TB) cells at 10^-5 M incubated for 48 hrs by sulforhodamine B assay relative to control
[20] = test system: SF-539; assay: Growth inhibition of human SF539 cells at 10^-5 M incubated for 48 hrs by sulforhodamine B assay relative to control
[21] = test system: Malme-3M; assay: Growth inhibition of human MALME-3M cells at 10^-5 M incubated for 48 hrs by sulforhodamine B assay relative to control
[22] = test system: M14; assay: Growth inhibition of human M14 cells at 10^-5 M incubated for 48 hrs by sulforhodamine B assay relative to control
[23] = test system: SNB-75; assay: Growth inhibition of human SNB75 cells at 10^-5 M incubated for 48 hrs by sulforhodamine B assay relative to control
[24] = test system: HCT-116; assay: Growth inhibition of human HCT116 cells at 10^-5 M incubated for 48 hrs by sulforhodamine B assay relative to control
[25] = test system: MDA-MB-468; assay: Growth inhibition of human MDA-MB-468 cells at 10^-5 M incubated for 48 hrs by sulforhodamine B assay relative to control
[26] = test system: U-251; assay: Growth inhibition of human U251 cells at 10^-5 M incubated for 48 hrs by sulforhodamine B assay relative to control
[27] = test system: Aspergillus fumigatus; assay: Antifungal activity against Aspergillus fumigatus after 24 hrs by serial dilution method
[28] = test system: OVCAR-5; assay: Growth inhibition of human OVCAR5 cells at 10^-5 M incubated for 48 hrs by sulforhodamine B assay relative to control
[29] = test system: OVCAR-4; assay: Growth inhibition of human OVCAR4 cells at 10^-5 M incubated for 48 hrs by sulforhodamine B assay relative to control
[30] = test system: HCC 2998; assay: Growth inhibition of human HCC2998 cells at 10^-5 M incubated for 48 hrs by sulforhodamine B assay relative to control
[31] = test system: NCI-H226; assay: Growth inhibition of human NCI-H226 cells at 10^-5 M incubated for 48 hrs by sulforhodamine B assay relative to control
[32] = test system: NCI-H522; assay: Growth inhibition of human NCI-H522 cells at 10^-5 M incubated for 48 hrs by sulforhodamine B assay relative to control
[33] = test system: MDA-MB-435; assay: Growth inhibition of human MDA-MB-435 cells at 10^-5 M incubated for 48 hrs by sulforhodamine B assay relative to control
[34] = test system: MOLT-4; assay: Growth inhibition of human MOLT4 cells at 10^-5 M incubated for 48 hrs by sulforhodamine B assay relative to control
[35] = test system: SK-MEL-28; assay: Growth inhibition of human SK-MEL-28 cells at 10^-5 M incubated for 48 hrs by sulforhodamine B assay relative to control
[36] = test system: Candida albicans; assay: Antifungal activity against Candida albicans after 24 hrs by serial dilution method
[37] = test system: COLO 205; assay: Growth inhibition of human COLO205 cells at 10^-5 M incubated for 48 hrs by sulforhodamine B assay relative to control
[38] = test system: SK-OV-3; assay: Growth inhibition of human SKOV3 cells at 10^-5 M incubated for 48 hrs by sulforhodamine B assay relative to control
[39] = test system: UO-31; assay: Growth inhibition of human UO31 cells at 10^-5 M incubated for 48 hrs by sulforhodamine B assay relative to control
[40] = test system: SF-268; assay: Growth inhibition of human SF268 cells at 10^-5 M incubated for 48 hrs by sulforhodamine B assay relative to control
[41] = test system: HT-29; assay: Growth inhibition of human HT-29 cells at 10^-5 M incubated for 48 hrs by sulforhodamine B assay relative to control
[42] = test system: EKVX; assay: Growth inhibition of human EKVX cells at 10^-5 M incubated for 48 hrs by sulforhodamine B assay relative to control
[43] = test system: CAKI-1; assay: Growth inhibition of human Caki1 cells at 10^-5 M incubated for 48 hrs by sulforhodamine B assay relative to control
[44] = test system: 786-0; assay: Growth inhibition of human 786-0 cells at 10^-5 M incubated for 48 hrs by sulforhodamine B assay relative to control

COc1ccc2nc(Cl)c(Cn3nnnc3Cc3ccccc3)cc2c1
active: growth inhibition (GI) [1] | growth inhibition (GI) [2] | growth inhibition (GI) [3] | growth inhibition (GI) [4] | growth inhibition (GI) [5] | growth inhibition (GI) [6] | growth inhibition (GI) [7] | growth inhibition (GI) [8] | growth inhibition (GI) [9] | growth inhibition (GI) [10] | growth inhibition (GI) [11] | growth inhibition (GI) [13] | growth inhibition (GI) [14] | growth inhibition (GI) [15] | growth inhibition (GI) [16] | growth inhibition (GI) [17] | growth inhibition (GI) [18] | growth inhibition (GI) [19] | growth inhibition (GI) [20] | growth inhibition (GI) [21] | growth inhibition (GI) [22] | growth inhibition (GI) [23] | growth inhibition (GI) [24] | growth inhibition (GI) [25] | growth inhibition (GI) [26] | growth inhibition (GI) [28] | growth inhibition (GI) [29] | growth inhibition (GI) [30] | growth inhibition (GI) [31] | growth inhibition (GI) [32] | growth inhibition (GI) [33] | growth inhibition (GI) [34] | growth inhibition (GI) [35] | growth inhibition (GI) [37] | growth inhibition (GI) [38] | growth inhibition (GI) [39] | growth inhibition (GI) [40] | growth inhibition (GI) [41] | growth inhibition (GI) [42] | growth inhibition (GI) [43] | growth inhibition (GI) [44]
20 mm: zone of inhibition at 100 µg/mL [12]
25 µg/mL: MIC [27] | MIC [36]

Clc1nc2ccccc2cc1Cn1nnnc1CSc1ccccc1
10 µg/mL: MIC [36]
16 mm: zone of inhibition at 100 µg/mL [12]
active: growth inhibition (GI) [1] | growth inhibition (GI) [2] | growth inhibition (GI) [3] | growth inhibition (GI) [4] | growth inhibition (GI) [5] | growth inhibition (GI) [6] | growth inhibition (GI) [7] | growth inhibition (GI) [8] | growth inhibition (GI) [9] | growth inhibition (GI) [10] | growth inhibition (GI) [11] | growth inhibition (GI) [13] | growth inhibition (GI) [14] | growth inhibition (GI) [15] | growth inhibition (GI) [16] | growth inhibition (GI) [17] | growth inhibition (GI) [18] | growth inhibition (GI) [19] | growth inhibition (GI) [20] | growth inhibition (GI) [21] | growth inhibition (GI) [22] | growth inhibition (GI) [23] | growth inhibition (GI) [24] | growth inhibition (GI) [25] | growth inhibition (GI) [26] | growth inhibition (GI) [28] | growth inhibition (GI) [29] | growth inhibition (GI) [30] | growth inhibition (GI) [31] | growth inhibition (GI) [32] | growth inhibition (GI) [33] | growth inhibition (GI) [34] | growth inhibition (GI) [35] | growth inhibition (GI) [37] | growth inhibition (GI) [38] | growth inhibition (GI) [39] | growth inhibition (GI) [40] | growth inhibition (GI) [41] | growth inhibition (GI) [42] | growth inhibition (GI) [43] | growth inhibition (GI) [44]
25 µg/mL: MIC [27]
